Conditions: 400 mg BID (n=4)
Method: Dose adjustment was allowed according to the severity of toxicity [Supplementary Table 1].
The primary endpoints were safety, ORR and DCR assessed by investigators. […] AEs referred to treatment-emergent adverse events (TEAEs) and TRAEs were assessed by investigators. Serious adverse events (SAEs) referred to AEs meeting at least one of the following criteria: event leading to death; life-threatening event; event requiring hospitalization or extension of hospital stay; event leading to persistent or evident disability or dysfunction; event leading to congenital malformation or birth defect or event which might lead to injury or that need medical treatment to avoid the above mentioned important medical events.

O=C(Nc1ccc(Oc2ccnc3c2CCN3)c(F)c1)c1c[nH]cc(-c2ccc(F)cc2)c1=O
TRAE Dyskinesia, any grade: 0 n (%) | TRAE Dyskinesia, grade 3-4: 0 n (%) | TRAE Dysphonia, any grade: 0 n (%) | TRAE Dysphonia, grade 3-4: 0 n (%) | TRAE Dyspnoea, any grade: 0 n (%) | TRAE Dyspnoea, grade 3-4: 0 n (%) | TRAE Electrocardiogram QT prolonged, any grade: 0 n (%) | TRAE Electrocardiogram QT prolonged, grade 3-4: 0 n (%) | TRAE Elevated ALT, any grade: 3 (75.0) n (%) | TRAE Elevated ALT, grade 3-4: 0 n (%) | TRAE Elevated AST, any grade: 3 (75.0) n (%) | TRAE Elevated AST, grade 3-4: 0 n (%) | TRAE Elevated D dimer, any grade: 0 n (%) | TRAE Elevated D dimer, grade 3-4: 0 n (%) | TRAE Elevated GGT, any grade: 1 (25.0) n (%) | TRAE Elevated GGT, grade 3-4: 0 n (%) | TRAE Elevated LDH, any grade: 1 (25.0) n (%) | TRAE Elevated LDH, grade 3-4: 0 n (%) | TRAE Elevated alpha-HBDH, any grade: 1 (25.0) n (%) | TRAE Elevated alpha-HBDH, grade 3-4: 0 n (%) | TRAE Elevated bilirubin, any grade: 1 (25.0) n (%) | TRAE Elevated bilirubin, grade 3-4: 0 n (%) | TRAE Elevated blood creatinine, any grade: 1 (25.0) n (%) | TRAE Elevated blood creatinine, grade 3-4: 0 n (%) | TRAE Elevated creatine phosphokinase, any grade: 2 (50.0) n (%) | TRAE Elevated creatine phosphokinase, grade 3-4: 0 n (%) | TRAE Elevated serum urea, any grade: 0 n (%) | TRAE Elevated serum urea, grade 3-4: 0 n (%) | TRAE Elevated troponin, any grade: 0 n (%) | TRAE Elevated troponin, grade 3-4: 0 n (%) | TRAE Genital rash, any grade: 0 n (%) | TRAE Genital rash, grade 3-4: 0 n (%) | TRAE Haematuria, any grade: 0 n (%) | TRAE Haematuria, grade 3-4: 0 n (%) | TRAE Headache, any grade: 0 n (%) | TRAE Headache, grade 3-4: 0 n (%) | TRAE Hyperhidrosis, any grade: 0 n (%) | TRAE Hyperhidrosis, grade 3-4: 0 n (%) | TRAE Hyperlipidaemia, any grade: 1 (25.0) n (%) | TRAE Hyperlipidaemia, grade 3-4: 0 n (%) | TRAE Hypertension, any grade: 1 (25.0) n (%) | TRAE Hypertension, grade 3-4: 0 n (%) | TRAE Hypoaesthesia oral, any grade: 0 n (%) | TRAE Hypoaesthesia oral, grade 3-4: 0 n (%) | TRAE Hypocalcaemia, any grade: 0 n (%) | TRAE Hypocalcaemia, grade 3-4: 0 n (%) | TRAE Hypotension, any grade: 0 n (%) | TRAE Hypotension, grade 3-4: 0 n (%) | TRAE Insomnia, any grade: 0 n (%) | TRAE Insomnia, grade 3-4: 0 n (%) | TRAE Leukopenia, any grade: 1 (25.0) n (%) | TRAE Leukopenia, grade 3-4: 0 n (%) | TRAE Nausea, any grade: 0 n (%) | TRAE Nausea, grade 3-4: 0 n (%) | TRAE Neuritis, any grade: 0 n (%) | TRAE Neuritis, grade 3-4: 0 n (%) | TRAE Occult blood, any grade: 0 n (%) | TRAE Occult blood, grade 3-4: 0 n (%) | TRAE Oedema peripheral, any grade: 0 n (%) | TRAE Oedema peripheral, grade 3-4: 0 n (%) | TRAE Onycholysis, any grade: 0 n (%) | TRAE Onycholysis, grade 3-4: 0 n (%) | TRAE Oropharyngeal pain, any grade: 0 n (%) | TRAE Oropharyngeal pain, grade 3-4: 0 n (%) | TRAE PPE, any grade: 4 (100.0) n (%) | TRAE PPE, grade 3-4: 3 (75.0) n (%) | TRAE Paraesthesia, any grade: 0 n (%) | TRAE Paraesthesia, grade 3-4: 0 n (%) | TRAE Proteinuria, any grade: 0 n (%) | TRAE Proteinuria, grade 3-4: 0 n (%) | TRAE Pruritus, any grade: 0 n (%) | TRAE Pruritus, grade 3-4: 0 n (%) | TRAE Rash maculo-papular, any grade: 0 n (%) | TRAE Rash maculo-papular, grade 3-4: 0 n (%) | TRAE Sinus tachycardia, any grade: 0 n (%) | TRAE Sinus tachycardia, grade 3-4: 0 n (%) | TRAE Skin fissures, any grade: 0 n (%) | TRAE Skin fissures, grade 3-4: 0 n (%) | TRAE Supraventricular extrasystoles, any grade: 0 n (%) | TRAE Supraventricular extrasystoles, grade 3-4: 0 n (%) | TRAE Thrombocytopenia, any grade: 2 (50.0) n (%) | TRAE Thrombocytopenia, grade 3-4: 1 (25.0) n (%) | TRAE Upper respiratory tract infection, any grade: 0 n (%) | TRAE Upper respiratory tract infection, grade 3-4: 0 n (%)
